# In patent US20140228287A1, “1-[(3-CYANO-PYRIDIN-2-YL)METHYL]-3-METHYL-7-(2-BUTYN-1-YL)-8-[3-(R)-AMINO-PIPERIDIN-1-YL]-AXANTHINE FOR THE TREATMENT OF A METABOLIC DISORDER OF A PREDOMINANTLY CARNIVOROUS NON-HUMAN ANIMAL” (BOEHRINGER INGELHEIM VETMEDICA GMBH, priority 2010, published 2014):
# Structures can show the parent of a compound that is named as a salt. Where two headings read alike, the source gives them in different places.
# Assays:
# DPP IV [1] = target: T1, DPP IV (Felis catus, UniProt Q9N2I7); experiment: Exploratory multiple dose PK/PD (1.0/3.0/9.0 mg/animal, 14 days) in cats: DPP IV activity; type: in vivo, cat; conditions: for response vs control in vivo at 3 mg/animal: head 3 mg/animal (title 3.0 mg/animal); for response vs control in vivo at 3 mg/animal / response vs control in vivo at 9 mg/animal / response vs control in vivo at 1 mg/animal: read-out: DPP IV activity in cat plasma; for response vs control in vivo at 1 mg/animal: head 1 mg/animal (title 1.0 mg/animal)
# T1 construct: Blood samples for the determination of this compound and DPP IV activity were collected; from tissue; host or cells: plasma of domestic short hair / purpose-bred cats dosed orally
# T1 sequence (Q9N2I7 38-765 limits assumed): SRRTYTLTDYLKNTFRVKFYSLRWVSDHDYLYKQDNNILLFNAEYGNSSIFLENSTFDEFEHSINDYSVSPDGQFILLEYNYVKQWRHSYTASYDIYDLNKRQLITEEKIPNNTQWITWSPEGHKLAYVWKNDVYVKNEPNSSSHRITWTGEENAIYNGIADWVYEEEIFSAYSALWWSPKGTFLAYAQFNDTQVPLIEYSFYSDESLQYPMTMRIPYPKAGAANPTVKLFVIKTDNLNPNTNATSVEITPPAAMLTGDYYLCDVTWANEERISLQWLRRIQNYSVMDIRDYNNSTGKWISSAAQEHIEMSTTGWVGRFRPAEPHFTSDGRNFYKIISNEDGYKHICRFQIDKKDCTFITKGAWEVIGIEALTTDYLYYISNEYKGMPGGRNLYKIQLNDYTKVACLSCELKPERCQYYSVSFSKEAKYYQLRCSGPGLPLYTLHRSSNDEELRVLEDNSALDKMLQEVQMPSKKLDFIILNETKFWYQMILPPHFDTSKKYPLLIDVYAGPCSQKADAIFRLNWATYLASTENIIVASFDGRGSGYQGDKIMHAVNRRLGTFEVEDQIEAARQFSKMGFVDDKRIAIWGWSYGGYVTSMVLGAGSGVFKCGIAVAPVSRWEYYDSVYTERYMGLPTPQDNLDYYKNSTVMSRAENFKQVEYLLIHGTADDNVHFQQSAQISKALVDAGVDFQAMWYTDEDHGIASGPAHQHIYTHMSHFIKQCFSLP
# Protocol: The aim of this study was to investigate the PK/PD effects of 1-[(3-cyano-pyridin-2-yl)methyl]-3-methyl-7-(2-butyn-1-yl)-8-[3-(R)-amino-piperidin-1-yl]-xanthine in cats following repeated oral administration of 0, 1, 3 and 9 mg/animal over 14 days corresponding to a dose of 0, 0.25, 0.75 and 2.25 mg/kg body weight for a cat weighing 4 kg. (Dosages were based on the free base: 1 mg 1-[(3-cyano-pyridin-2-yl)methyl]-3-methyl-7-(2-butyn-1-yl)-8-[3-(R)-amino-piperidin-1-yl]-xanthine monohydrochloride corresponds to 0.923 mg 1-[(3-cyano-pyridin-2-yl)methyl]-3-methyl-7-(2-butyn-1-yl)-8-[3-(R)-amino-piperidin-1-yl]-xanthine free base).
# For this purpose, twelve clinically healthy male adult domestic short hair cats with a body weight range of 3.5-4.8 kg were used. The animals were randomly allocated to 4 groups, 3 animals per group. All animals were treated once daily orally for 14 days (i.e. on days 0-13). The test article was administered via capsules at doses of 1 (group II), 3 (group III) or 9 (group IV) mg of the monohydrochloride compound per animal; group I received placebo serving as controls. Blood samples for PK and PD (DPP IV activity) investigations were drawn at 0 h (i.e. prior to the 1st treatment), 0.5, 1, 2, 4, 8, 12 and 24 h after the 1st treatment as well as 24 h after the 3rd, 5th, 7th, 9th, 11th and 13th treatment and 0.5, 1, 2, 4, 8, 12 and 24 h after the 14th treatment.
# DPP IV [2] = target: T1, DPP IV; experiment: Exploratory single dose PK/PD (0.3/1.0/3.0 mg/kg) in cats: DPP IV activity; type: in vivo, cat; conditions: for response vs control in vivo at 0.3 mg/kg: 0.3 mg/kg single oral; for response vs control in vivo at 0.3 mg/kg / response vs control in vivo at 1 mg/kg / response vs control in vivo at 3 mg/kg: read-out: DPP IV activity in cat plasma (0 h = 100%); for response vs control in vivo at 1 mg/kg: 1 mg/kg single oral; for response vs control in vivo at 3 mg/kg: 3 mg/kg single oral
# Protocol: The aim of this first study was to investigate the PK/PD of 1-[(3-cyano-pyridin-2-yl)methyl]-3-methyl-7-(2-butyn-1-yl)-8-[3-(R)-amino-piperidin-1-yl]-xanthine in the cat after a single oral administration of 0, 0.3, 1.0 and 3.0 mg/kg body weight. For this purpose, twelve male clinically healthy adult domestic short hair cats with a body weight range of 3.5-4.5 kg were used. All animals were treated once orally with placebo or the respective 1-[(3-cyano-pyridin-2-yl)methyl]-3-methyl-7-(2-butyn-1-yl)-8-[3-(R)-amino-piperidin-1-yl]-xanthine monohydrochloride dose formulation. Blood samples for the determination of this compound and DPP IV activity were collected at 0 (pre-dose), 0.5, 1, 2, 4, 8, 24, 36, 48, 72 and 96 hours after treatment and the activity of DPP IV was determined like in example 6.
# The resulting pharmacodynamic data from this experiment are summarized in following Table 3; the value of 0 h was set to 100% for each treatment.
# [3] = 324 h, once daily oral 14 days, 324 h
# [4] = 336 h, once daily oral 14 days, 336 h
smiles,measurement,setting,value
CC#CCn1c(N2CCC[C@@H](N)C2)nc2c1c(=O)n(Cc1ncccc1C#N)c(=O)n2C [1-[(3-cyano-pyridin-2-yl)methyl]-3-methyl-7-(2-butyn-1-yl)-8-[3-(R)-amino-piperidin-1-yl]-xanthine monohydrochloride],response vs control in vivo at 3 mg/animal,"DPP IV [1]; 320 h, once daily oral 14 days, 320 h",12.3%
same,response vs control in vivo at 9 mg/animal,"DPP IV [1]; 320 h, head 9 mg/animal (title 9.0 mg/animal), once daily oral 14 days, 320 h",10.3%
same,response vs control in vivo at 1 mg/animal,DPP IV [1]; [3],32.3%
same,response vs control in vivo at 3 mg/animal,DPP IV [1]; [3],15%
same,response vs control in vivo at 9 mg/animal,"DPP IV [1]; 324 h, head 9 mg/animal (title 9.0 mg/animal), once daily oral 14 days, 324 h",12%
same,response vs control in vivo at 1 mg/animal,DPP IV [1]; [4],67.7%
same,response vs control in vivo at 3 mg/animal,DPP IV [1]; [4],31.3%
same,response vs control in vivo at 9 mg/animal,"DPP IV [1]; 336 h, head 9 mg/animal (title 9.0 mg/animal), once daily oral 14 days, 336 h",18.7%
same,time up to which mean DPP IV values remained ≦20% after 1st treatment,DPP IV [1]; group II (1 mg per animal),8 h
same,time up to which mean DPP IV values remained ≦20% after the 14th treatment,DPP IV [1]; group II (1 mg per animal),4 h
same,minimum mean DPP IV values after treatment on day 0,"DPP IV [1]; group II (1 mg per animal), at 1 h",9%
same,"mean DPP IV activity, range 24 h after 3rd-13th treatment (72-312 h)",DPP IV [1]; group II (1 mg/cat),33-63%
same,time up to which mean DPP IV values remained ≦20% after 1st treatment,DPP IV [1]; group III (3 mg per animal),12 h
same,time up to which mean DPP IV values remained ≦20% after the 14th treatment,DPP IV [1]; group III (3 mg per animal),12 h
same,minimum mean DPP IV values after treatment on day 0,"DPP IV [1]; group III (3 mg per animal), at 2 and 4 h",8%
same,"mean DPP IV activity, range 24 h after 3rd-13th treatment (72-312 h)",DPP IV [1]; group III (3 mg/cat),19-41%
same,time up to which mean DPP IV values remained ≦20% after 1st treatment,DPP IV [1]; group IV (9 mg per animal),24 h
same,time up to which mean DPP IV values remained ≦20% after the 14th treatment,DPP IV [1]; group IV (9 mg per animal),24 h
same,minimum mean DPP IV values after treatment on day 0,"DPP IV [1]; group IV (9 mg per animal), at 1 and 2 h",7%
same,"mean DPP IV activity, range 24 h after 3rd-13th treatment (72-312 h)",DPP IV [1]; group IV (9 mg/cat),14-18%
same,DPP IV activity in cat plasma,"DPP IV [1]; head 9 mg/animal (title 9.0 mg/animal), once daily oral 14 days, 312.5 h, monohydrochloride",10.0%
same,response vs control in vivo at 0.3 mg/kg,DPP IV [2]; 0.5 h,15%
same,response vs control in vivo at 0.3 mg/kg,DPP IV [2]; 1 h,13%
same,response vs control in vivo at 0.3 mg/kg,DPP IV [2]; 2 h,13%
same,response vs control in vivo at 0.3 mg/kg,DPP IV [2]; 4 h,15%
same,response vs control in vivo at 0.3 mg/kg,DPP IV [2]; 8 h,19%
same,response vs control in vivo at 0.3 mg/kg,DPP IV [2]; 24 h,54%
same,response vs control in vivo at 0.3 mg/kg,DPP IV [2]; 36 h,84%
same,response vs control in vivo at 0.3 mg/kg,DPP IV [2]; 48 h,93%
same,response vs control in vivo at 0.3 mg/kg,DPP IV [2]; 72 h,95%
same,response vs control in vivo at 0.3 mg/kg,DPP IV [2]; 96 h,95%
same,response vs control in vivo at 1 mg/kg,DPP IV [2]; 0.5 h,11%
same,response vs control in vivo at 1 mg/kg,DPP IV [2]; 1 h,11%
same,response vs control in vivo at 1 mg/kg,DPP IV [2]; 2 h,12%
same,response vs control in vivo at 1 mg/kg,DPP IV [2]; 4 h,12%
same,response vs control in vivo at 1 mg/kg,DPP IV [2]; 8 h,15%
same,response vs control in vivo at 1 mg/kg,DPP IV [2]; 24 h,42%
same,response vs control in vivo at 1 mg/kg,DPP IV [2]; 36 h,67%
same,response vs control in vivo at 1 mg/kg,DPP IV [2]; 48 h,80%
same,response vs control in vivo at 1 mg/kg,DPP IV [2]; 72 h,91%
same,response vs control in vivo at 1 mg/kg,DPP IV [2]; 96 h,92%
same,response vs control in vivo at 3 mg/kg,DPP IV [2]; 0.5 h,16%
same,response vs control in vivo at 3 mg/kg,DPP IV [2]; 1 h,13%
same,response vs control in vivo at 3 mg/kg,DPP IV [2]; 2 h,12%
same,response vs control in vivo at 3 mg/kg,DPP IV [2]; 4 h,14%
same,response vs control in vivo at 3 mg/kg,DPP IV [2]; 8 h,17%
same,response vs control in vivo at 3 mg/kg,DPP IV [2]; 24 h,49%
same,response vs control in vivo at 3 mg/kg,DPP IV [2]; 36 h,66%
same,response vs control in vivo at 3 mg/kg,DPP IV [2]; 48 h,85%
same,response vs control in vivo at 3 mg/kg,DPP IV [2]; 72 h,101%
same,response vs control in vivo at 3 mg/kg,DPP IV [2]; 96 h,95%
same,inhibition of DPP IV,"DPP IV [2]; all doses (0.3, 1.0, 3.0 mg/kg single oral)",more than 80%
